# From ChEMBL document CHEMBL1130804, “Potent antimitotic and cell growth inhibitory properties of substituted chalcones” (Bioorg Med Chem Lett, 1998)
# pIC50: −log10 of the molar value.
# Key:
# K562 = assay: Compound was evaluated for cytotoxic activity against K562 human chronic myelogenous leukemia cell line using MTT assay; type: functional, cell-based
# Tubulin alpha chain = Tubulin alpha chain (Sus scrofa, UniProt P02550); assay: Tested for inhibition of polymerization of tubulin
# HeLa = assay: Compound was evaluated for cytotoxic activity against HeLa S3 cell line; type: functional, cell-based; conditions: Homo sapiens
# Tubulin alpha chain, sequence (P02550 whole entry, looked up): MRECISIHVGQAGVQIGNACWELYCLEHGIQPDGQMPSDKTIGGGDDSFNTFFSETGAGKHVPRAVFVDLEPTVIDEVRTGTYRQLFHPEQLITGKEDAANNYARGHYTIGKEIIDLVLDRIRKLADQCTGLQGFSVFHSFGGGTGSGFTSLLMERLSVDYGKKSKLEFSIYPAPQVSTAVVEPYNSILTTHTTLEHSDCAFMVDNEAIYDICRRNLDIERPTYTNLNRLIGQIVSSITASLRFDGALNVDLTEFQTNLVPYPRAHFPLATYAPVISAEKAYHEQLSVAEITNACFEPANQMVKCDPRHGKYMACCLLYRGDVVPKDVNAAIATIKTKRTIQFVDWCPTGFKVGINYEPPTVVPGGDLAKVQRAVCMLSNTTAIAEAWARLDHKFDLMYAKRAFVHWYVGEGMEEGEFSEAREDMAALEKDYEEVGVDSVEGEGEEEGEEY
pIC50 (Tubulin alpha chain),SMILES,pIC50 (K562),pIC50 (HeLa)
–,COc1cc(C(=O)/C(C)=C/c2ccc3c(c2)OCCO3)cc(OC)c1OC,7.92,–
7.92,COc1ccc(OC)c(C(=O)/C(C)=C/c2ccc(N(C)C)cc2)c1,7.96,–
–,COc1cc(C(=O)/C(C)=C/c2ccc3c(c2)OCO3)cc(OC)c1OC,7.85,–
–,COc1ccc(/C=C/C(=O)c2cc(OC)c(OC)c(OC)c2)cc1O,8.37,–
–,COc1cc(C(=O)/C=C/c2ccc3c(c2)OCCO3)cc(OC)c1OC,7.10,–
–,COc1cc(C(=O)/C=C/c2ccc3c(c2)OCO3)cc(OC)c1OC,6.52,–
–,COc1ccc(/C=C(\C)C(=O)c2cc(OC)c(OC)c(OC)c2)cc1O,9.68,9.21
–,COc1ccc(OC)c(C(=O)/C=C/c2ccc(N(C)C)cc2)c1,7.44,–
